“And” between values parts separate entries of the source, which are not always exact repeats. Equal entries are not always repeated. “Also recorded” adds a separate entry of the source.
System: patients with symptoms of UAB syndrome
Test: Treatment of patients with symptoms of UAB syndrome with cevimeline (Qmax, PVR, UAB symptom questionnaire)
Format: in vivo, human
Conditions: for UAB Score: five-question UAB symptom questionnaire, lower score = improvement; for UAB Score / PVR (residual urine volume in the bladder) / Qmax (maximum urine flow rate): individual patients
Text: Six different patients who each suffered from one or more medical conditions and symptoms of UAB syndrome were examined. UAB symptom-related data obtained from the patients before and after treatment with cevimeline was obtained from some of the patients and is presented below in Tables I-IV. […] Quantitative measurements were made to determine maximum urine flow rate Qmax (expressed in mL/s) and residual urine volume in the bladder PVR (expressed in mL). Qualitative measurements were obtained based on the patient's perceived UAB symptoms. A lower UAB score indicates an improvement in UAB symptoms. […] 4 and 6 after one week of treatment with cevimeline. Cevimeline was administered to each patient in 30 mg doses, three times per day. […] Specifically, the volume of residual urine in the bladder of patient 6 decreased from a baseline volume of 120 mL to a treated volume of 28 mL. To assess for qualitative improvement of UAB symptoms upon administration of cevimeline, patients were surveyed using a five-question UAB symptom questionnaire. The UAB score was then tallied from the patient responses. […] 4 and 6 after a two-week treatment with cevimeline. Cevimeline was administered to each patient in 60 mg doses, three times per day.

[1] = after one week of treatment with cevimeline 30 mg tid
[2] = after two weeks of treatment with cevimeline 60 mg tid

C[C@@H]1O[C@@]2(CS1)CN1CCC2CC1 [cevimeline, (2R,5R)-2-methylspiro[1,3-oxathiolane-5,3′-1-azabicyclo[2.2.2]octane]]
UAB Score [1]: 12 and 9 (2×) | PVR (residual urine volume in the bladder) [1]: 28 mL and 240 mL | Qmax (maximum urine flow rate) [1]: 2.9 mL/s and 3 mL/s | improvement in UAB symptoms (in words) (after one week, 30 mg three times per day, patient 4 and patient 6): did not demonstrate any quantitative or qualitative improvement; also recorded: did show quantitative improvement | UAB Score [2]: 7 | PVR (residual urine volume in the bladder) [2]: 92 mL and 69 mL | Qmax (maximum urine flow rate) [2]: 9.5 mL/s and 9.9 mL/s | improvement of UAB syndrome-related symptoms (in words) (after two-week treatment, 60 mg three times per day, patient 4 and patient 6): demonstrated both quantitative and qualitative improvements | overall effect on symptoms related to UAB syndrome (in words) (initial data from preliminary studies): effective at treating the symptoms related to UAB syndrome
